In patent US20250387486A1, “LIPID COMPOSITION” (STEMIRNA THERAPEUTICS CO., LTD., priority 2022, published 2025):

Tested on: B16F10 tumor-bearing mice
Assay: Luciferase expression tumor/whole body after intratumoral injection, B16F10 tumor-bearing mice
Type: in vivo, C57BL/6 mice
Conditions: for LNP (tumor/whole body)% ratio of luciferase expression: cationic lipid:DSPC:PEG-DMG:cholesterol 50:10:1.5:38.5 (groups 1-1 to 1-3); for LNP (tumor/whole body)% ratio of luciferase expression / LPP (tumor/whole body)% ratio of luciferase expression: 5 μg luciferase mRNA intratumoral, 6 hours; for LPP (tumor/whole body)% ratio of luciferase expression: cationic lipid:DSPC:PEG-DMG:cholesterol 50:10:1.5:38.5 (groups 1-4 to 1-6)
Procedure: (§1) Female C57BL/6 mice (Beijing Vital River Laboratory Animal Technology Co., Ltd.) of 6 weeks of age with a weight of around 20 g were used, and each mouse was injected subcutaneously unilaterally with 1×10^6 murine-derived cutaneous melanoma cells, B16F10 cells. When tumors grew to a size of about 450 mm^3, B16F10 tumor-bearing mice were divided into 6 groups (1-1, 1-2, 1-3, 1-4, 1-5, and 1-6 groups, with 3 mice per group), and LPP and LNP solutions (50 μL) containing 5 μg of luciferase mRNA prepared by the prescriptions were respectively taken and administered to the mice by intratumoral injection. 6 hours after the administration, mice were injected intraperitoneally with a 150 mg/kg […] substrate. The bioluminescence was measured in a Xenogen IVIS-200 imaging system 7 minutes after substrate injection to evaluate the expression and distribution of the luciferase mRNA in the mice.
as §1, with “into 8” for “into 6”, “groups (2-1, 2-2, 2-3, 2-4, 2-5, 2-6, 2-7,” for “groups (1-1, 1-2, 1-3, 1-4, 1-5,”, “and 2-8” for “and 1-6”, “and” for “and LPP and LNP”
as §1, with “mm^3, the” for “mm^3, B16F10 tumor-bearing”, “into 8” for “into 6”, “groups (3-1, 3-2, 3-3, 3-4, 3-5, 3-6, 3-7, 3-8” for “groups (1-1, 1-2, 1-3, 1-4, 1-5, and 1-6”, “and” for “and LPP and LNP”

Row | SMILES | LNP (tumor/whole body)% ratio of luciferase expression [%] | LPP (tumor/whole body)% ratio of luciferase expression [%] | ratio of luciferase expression of tumor/whole body, rank among cationic lipids (Example 3, versus ALC-0315 and SW-II-127)
1 | CCCCCCCCC(CCCCCC)C(=O)OCCCCCCN(CCCCO)CCCCCCOC(=O)C(CCCCCC)CCCCCCCC (stereo not shown) [ALC-0315, reference compound] | 4.9 | 11.2 ± 7.9 | –
2 | CCCCCCCCC(CCCCCCCC)OC(=O)CCCCCCCN(CCO)CCCCCCC(=O)OCc1ccc(CCCCCC)cc1 [SW-II-127] | 15.0 ± 18.5 | 25.7 ± 15.1 | –
3 | CCCCCCCCCOC(=O)CCCCCCCN(CCO)CCCCCCCC(=O)OCCCc1ccc(CCCCC)c(CCCCC)c1 [SW-II-135-1] | 43.6 ± 34.7 | 58.6 ± 36.4 | highest ratio of luciferase expression of tumor/whole body
